Measured values taken from publication PMC7962978, “PSMA-D4 Radioligand for Targeted Therapy of Prostate Cancer: Synthesis, Characteristics and Preliminary Assessment of Biological Properties” (International Journal of Molecular Sciences, 2021).

Legend:
[1] = Lipophilicity determination (logD), shake-flask method; type: physicochemical; details: n-octanol / PBS pH 7.4, shake-flask
Experimental: The partition coefficient logD of the radioligands was determined by the shake-flask method. The solution of 10 to 50 MBq of radiolabeled PSMA ligands (D-4, 617, 11, I&T) in 1.0 mL of phosphate-buffered saline (PBS, pH 7.4) was added to 1.0 mL of presaturated n-octanol solution (n = 3). Vials were shaken vigorously for 10 min. To achieve quantitative phase separation, the vials were centrifuged at 1600 rpm for 5 min. The radioactivity concentration in a defined volume of both the aqueous and the organic phase in six replicates each was measured in a γ-counter (Wizard 1470, Wallac, Turku, Finland). The partition coefficient was calculated as the logarithm of the ratio between counts per minute (cpm) measured in the n-octanol phase to the PBS phase counts.

LNCaP cells = assay: Cell uptake (total binding) and internalization in LNCaP cells; type: cell-based, human; details: 37 °C, 2 h
Experimental: To determine cell uptake and internalization of [^177Lu]Lu-PSMA-D4 and [^90Y]Y-PSMA-D4, LNCaP cells (5 × 10^5 cells well^−1) were incubated in un-supplemented RPMI 1640 medium with one concentration of tested radioligands on 12-well plates in 37 °C per 2 h. After the appropriate time, the medium was removed, and cells were washed twice using phosphate buffer saline (PBS, IITD PAN, Wroclaw, Poland). The cells were treated twice with 1 mL of 50 mM glycine in 0.1 M NaCl at a pH of 2.8 and incubated for 5 min at room temperature to collect extracellularly bound compound. The internalization was determined by measuring the radioactivity of 1mL of 1 M NaOH used for cell lysis. Total binding was calculated as a sum of the membrane and internalized fractions measured using Wallac Wizard 1470 γ counter. As a control, [^177Lu]Lu-PSMA-617 and [^68Ga]Ga-PSMA-11 were used.

PSMA antigen = target: T1, PSMA antigen (Homo sapiens, UniProt Q04609); assay: Saturation radioligand binding assay on LNCaP (PSMA positive) and PC3 (PSMA negative) cell membranes
T1 construct: PSMA antigen expressed on LNCaP cell membranes; endogenous in cells; host or cells: LNCaP cell membranes (PC3 membranes as PSMA-negative control)
Experimental: The equilibrium constant (KD) was determined by a saturation binding experiment performed in PSMA positive LNCaP and PSMA negative PC3 cell membranes isolated according to the procedure developed by Fichna et al.. The 50 mcL of LNCaP and PC3 cell membranes were seeded on special MultiScreen™ 96 well filter plates (Merck, Warsaw, Poland) and incubated for 2 h with increasing concentration of [^177Lu]Lu-PSMA-D4, [^90Y]Y-PSMA-D4, and […] (0.016–194 nM) at 37 °C. After incubation, the unbound radiocomplexes were filtered under vacuum, and the membranes were washed twice using PBS. The filters containing membranes with the attached radiotracer were extruded into tubes using MultiScreen Multile Punch (Merck). The number of associated inhibitors was determined by measuring the radioactivity of squeezed filters using Wallac Wizard 1470 γ counter. The KD and Bmax were calculated by nonlinear regression using the GraphPad Prism statistic program.

LNCaP tumor-bearing mice [2] = assay: Ex vivo biodistribution in mice bearing LNCaP tumor
Experimental: An experimental tumor murine model was induced using LNCaP cell, which grew to 80–90% confluence before trypsinization and formulation in Matrixgel™ Basement Membrane Matrix (Bedford, MA, USA) for implantation into mice. The mice were subcutaneously injected in the shoulder with 200 mcL bolus containing a suspension of 10^6 freshly harvested cell line LNCaP in Matrixgel™. This procedure was performed under anaesthesia with 2% isoflurane. The animals were kept under pathogen-free condition, and experiments were performed 2–3 weeks later when a tumor reached a volume of approximately 150 ± 60 mm^3. Then, the animals were randomized into two groups (25 mice per group, five mice per time point): Group 1, treated with a single intravenous injection of [^90Y]Y-PSMA-D4 (0.1 mL, 0.1 mcg, 15.5 MBq, SA 16.7 GBq mg^−1 = 17.2 GBq mcmol^−1) and Group 2, treated with a single intravenous injection of [^47Sc]Sc-PSMA-D4 (0.1 mL, 0.19 mcg, 10 MBq, SA 4.8 GBq mg^−1 = 4.57 GBq mcmol^−1).
At 1, 2, 4, 6, 24, and 48 h after injection, the animals were euthanized by cervical dislocation and dissected. Selected organs and tissues were assayed for their radioactivity and weighted. The physiological distribution was calculated and expressed in terms of the percentage of administrated radioactivity found in each of the selected organs or tissues per gram (%ID g^−1).
Results are provided as mean ± SD. The results of physiological distribution are presented as a percentage of the dose administered per gram of tissue (%ID g^−1) as average value with standard deviation (%ID g^−1; mean ± standard deviation (SD)) with n representing the number of animals per group. Data were statistically analyzed using GraphPad Prism version 8.0.0 for Window.

LNCaP tumor-bearing mice [3] = assay: Cerenkov luminescence imaging (CLI) of LNCaP tumor-bearing mice; type: in vivo; details: 2-48 h p.i.
Experimental: The PhotonIMAGER Optima system (Biospace Lab, Nesles-la-Vallée, France) was used for the non-invasive detection, localization, and quantification of yttrium-90 signal from live animals based on Cerenkov luminescence imaging. It was feasible due to high-energy β^− particle emission produces continuous spectrum light photons or Cerenkov radiation. Optical imaging of [^90Y]Y-PSMA-D4 in LNCaP cell grafted mice was performed contemporaneously with ex vivo studies. The animals were placed individually in an induction chamber, where anaesthesia was induced with 5% isoflurane (Iso-Vet, Piramal Healthcare UK Limited, West Drayton, UK) in 100% oxygen with a delivery rate of 2 L min^−1 until loss of righting reflex. After induction, the animals were moved to the optical chamber. Anaesthesia was then maintained with 1.5–2% isoflurane in 100% oxygen with a flow of 1.5 L min^−1 administered through a facemask connected to a coaxial circuit. Body temperature was maintained at 37 °C by a heating table inside the chamber. At recovery, all animals received 100% oxygen until recovery of righting reflex. No mice were restrained during anaesthesia.

T1 sequence (Q04609 whole entry): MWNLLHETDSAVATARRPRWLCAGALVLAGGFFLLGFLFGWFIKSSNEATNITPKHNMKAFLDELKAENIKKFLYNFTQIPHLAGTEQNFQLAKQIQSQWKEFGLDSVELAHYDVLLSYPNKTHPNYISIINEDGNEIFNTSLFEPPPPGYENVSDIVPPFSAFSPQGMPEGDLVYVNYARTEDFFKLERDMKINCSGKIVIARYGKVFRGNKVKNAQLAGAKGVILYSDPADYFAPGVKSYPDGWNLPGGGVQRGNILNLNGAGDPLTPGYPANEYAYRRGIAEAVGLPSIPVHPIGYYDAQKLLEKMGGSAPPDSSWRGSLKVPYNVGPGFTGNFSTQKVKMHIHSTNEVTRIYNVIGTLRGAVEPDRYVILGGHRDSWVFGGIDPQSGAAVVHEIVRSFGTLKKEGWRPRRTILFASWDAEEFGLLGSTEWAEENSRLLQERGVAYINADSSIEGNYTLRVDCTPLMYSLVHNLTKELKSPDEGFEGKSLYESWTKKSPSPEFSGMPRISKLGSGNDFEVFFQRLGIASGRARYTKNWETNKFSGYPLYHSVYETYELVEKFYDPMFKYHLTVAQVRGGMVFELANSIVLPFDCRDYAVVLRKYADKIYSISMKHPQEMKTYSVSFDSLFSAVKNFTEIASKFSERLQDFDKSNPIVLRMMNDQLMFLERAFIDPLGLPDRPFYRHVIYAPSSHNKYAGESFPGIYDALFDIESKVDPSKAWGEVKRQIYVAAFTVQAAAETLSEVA

SMILES: O=C([O-])CN1CCN(CC(=O)[O-])CCN(CC(=O)NCC2CCC(C(=O)NC(Cc3c[nH]c4ccccc34)C(=O)NCCCCC(NC(=O)NC(CCC(=O)O)C(=O)O)C(=O)O)CC2)CCN(CC(=O)[O-])CC1.[90Y+3] (centres unmarked) [[^90Y]Y-PSMA-D4]
- logD [1]: −5.18 ± 0.04
- Internalization (LNCaP cells): 35.4%
- Total Binding (LNCaP cells): 16.8%
- Kd (PSMA antigen; LNCaP cell membranes, 2 h, 37 °C): 4.5 ± 2.1 nM
- Specific Binding (PSMA antigen; total binding on LNCaP minus non-specific binding on PC3 membranes): 99.9 ± 0.1%
- T/B (ratio tumor to blood) (LNCaP tumor-bearing mice [2]; 2 h after i.v. injection): 323.7
- T/K (ratio tumor to kidneys) (LNCaP tumor-bearing mice [2]; 2 h after i.v. injection): 7.6
- T/M (ratio tumor to muscle) (LNCaP tumor-bearing mice [2]; 2 h after i.v. injection): 97.0
- blood (LNCaP tumor-bearing mice [2]; 2 h after i.v. injection): 0.06 ± 0.01 %ID g^−1
- kidneys (LNCaP tumor-bearing mice [2]; 2 h after i.v. injection): 2.70 ± 0.20 %ID g^−1
- large intestine (LNCaP tumor-bearing mice [2]; 2 h after i.v. injection): 0.12 ± 0.05 %ID g^−1
- liver (LNCaP tumor-bearing mice [2]; 2 h after i.v. injection): 0.08 ± 0.00 %ID g^−1
- muscle (LNCaP tumor-bearing mice [2]; 2 h after i.v. injection): 0.21 ± 0.13 %ID g^−1
- small intestine (LNCaP tumor-bearing mice [2]; 2 h after i.v. injection): 0.32 ± 0.13 %ID g^−1
- spleen (LNCaP tumor-bearing mice [2]; 2 h after i.v. injection): 0.19 ± 0.06 %ID g^−1
- stomach (LNCaP tumor-bearing mice [2]; 2 h after i.v. injection): 0.10 ± 0.04 %ID g^−1
- tumor (LNCaP tumor-bearing mice [2]; 2 h after i.v. injection): 20.24 ± 5.52 %ID g^−1
- urine (LNCaP tumor-bearing mice [2]; 2 h after i.v. injection): 96.08 ± 0.53 %ID
- T/B (ratio tumor to blood) (LNCaP tumor-bearing mice [2]; 4 h after i.v. injection): 312.9
- T/K (ratio tumor to kidneys) (LNCaP tumor-bearing mice [2]; 4 h after i.v. injection): 9.7
- T/M (ratio tumor to muscle) (LNCaP tumor-bearing mice [2]; 4 h after i.v. injection): 324.4
- blood (LNCaP tumor-bearing mice [2]; 4 h after i.v. injection): 0.05 ± 0.03 %ID g^−1
- kidneys (LNCaP tumor-bearing mice [2]; 4 h after i.v. injection): 1.70 ± 0.13 %ID g^−1
- large intestine (LNCaP tumor-bearing mice [2]; 4 h after i.v. injection): 0.32 ± 0.16 %ID g^−1
- liver (LNCaP tumor-bearing mice [2]; 4 h after i.v. injection): 0.08 ± 0.01 %ID g^−1
- muscle (LNCaP tumor-bearing mice [2]; 4 h after i.v. injection): 0.05 ± 0.02 %ID g^−1
- small intestine (LNCaP tumor-bearing mice [2]; 4 h after i.v. injection): 0.30 ± 0.14 %ID g^−1
- spleen (LNCaP tumor-bearing mice [2]; 4 h after i.v. injection): 0.17 ± 0.06 %ID g^−1
- stomach (LNCaP tumor-bearing mice [2]; 4 h after i.v. injection): 0.11 ± 0.05 %ID g^−1
- tumor (LNCaP tumor-bearing mice [2]; 4 h after i.v. injection): 16.40 ± 6.88 %ID g^−1
- urine (LNCaP tumor-bearing mice [2]; 4 h after i.v. injection): 95.47 ± 3.07 %ID
- T/B (ratio tumor to blood) (LNCaP tumor-bearing mice [2]; 6 h after i.v. injection): 131.2
- T/K (ratio tumor to kidneys) (LNCaP tumor-bearing mice [2]; 6 h after i.v. injection): 8.4
- T/M (ratio tumor to muscle) (LNCaP tumor-bearing mice [2]; 6 h after i.v. injection): 983.7
- blood (LNCaP tumor-bearing mice [2]; 6 h after i.v. injection): 0.06 ± 0.01 %ID g^−1
- kidneys (LNCaP tumor-bearing mice [2]; 6 h after i.v. injection): 0.98 ± 0.38 %ID g^−1
- large intestine (LNCaP tumor-bearing mice [2]; 6 h after i.v. injection): 0.20 ± 0.02 %ID g^−1
- liver (LNCaP tumor-bearing mice [2]; 6 h after i.v. injection): 0.31 ± 0.07 %ID g^−1
- muscle (LNCaP tumor-bearing mice [2]; 6 h after i.v. injection): 0.01 ± 0.01 %ID g^−1
- small intestine (LNCaP tumor-bearing mice [2]; 6 h after i.v. injection): 0.14 ± 0.11 %ID g^−1
- spleen (LNCaP tumor-bearing mice [2]; 6 h after i.v. injection): 1.05 ± 0.29 %ID g^−1
- stomach (LNCaP tumor-bearing mice [2]; 6 h after i.v. injection): 0.04 ± 0.03 %ID g^−1
- tumor (LNCaP tumor-bearing mice [2]; 6 h after i.v. injection): 8.28 ± 1.97 %ID g^−1
- urine (LNCaP tumor-bearing mice [2]; 6 h after i.v. injection): 96.57 ± 2.44 %ID
- T/B (ratio tumor to blood) (LNCaP tumor-bearing mice [2]; 24 h after i.v. injection): 257.6
- T/K (ratio tumor to kidneys) (LNCaP tumor-bearing mice [2]; 24 h after i.v. injection): 29.0
- T/M (ratio tumor to muscle) (LNCaP tumor-bearing mice [2]; 24 h after i.v. injection): 387.4
- blood (LNCaP tumor-bearing mice [2]; 24 h after i.v. injection): 0.03 ± 0.03 %ID g^−1
- kidneys (LNCaP tumor-bearing mice [2]; 24 h after i.v. injection): 0.30 ± 0.12 %ID g^−1
- large intestine (LNCaP tumor-bearing mice [2]; 24 h after i.v. injection): 0.41 ± 0.15 %ID g^−1
- liver (LNCaP tumor-bearing mice [2]; 24 h after i.v. injection): 0.04 ± 0.01 %ID g^−1
- muscle (LNCaP tumor-bearing mice [2]; 24 h after i.v. injection): 0.02 ± 0.02 %ID g^−1
- small intestine (LNCaP tumor-bearing mice [2]; 24 h after i.v. injection): 0.20 ± 0.20 %ID g^−1
- spleen (LNCaP tumor-bearing mice [2]; 24 h after i.v. injection): 0.12 ± 0.06 %ID g^−1
- stomach (LNCaP tumor-bearing mice [2]; 24 h after i.v. injection): 0.06 ± 0.05 %ID g^−1
- tumor (LNCaP tumor-bearing mice [2]; 24 h after i.v. injection): 8.33 ± 3.09 %ID g^−1
- urine (LNCaP tumor-bearing mice [2]; 24 h after i.v. injection): 94.79 ± 7.51 %ID
- T/B (ratio tumor to blood) (LNCaP tumor-bearing mice [2]; 48 h after i.v. injection): 193.0
- T/K (ratio tumor to kidneys) (LNCaP tumor-bearing mice [2]; 48 h after i.v. injection): 68.4
- T/M (ratio tumor to muscle) (LNCaP tumor-bearing mice [2]; 48 h after i.v. injection): 351.4
- blood (LNCaP tumor-bearing mice [2]; 48 h after i.v. injection): 0.04 ± 0.02 %ID g^−1
- kidneys (LNCaP tumor-bearing mice [2]; 48 h after i.v. injection): 0.12 ± 0.03 %ID g^−1
- large intestine (LNCaP tumor-bearing mice [2]; 48 h after i.v. injection): 0.84 ± 0.56 %ID g^−1
- liver (LNCaP tumor-bearing mice [2]; 48 h after i.v. injection): 0.17 ± 0.07 %ID g^−1
- muscle (LNCaP tumor-bearing mice [2]; 48 h after i.v. injection): 0.02 ± 0.01 %ID g^−1
- small intestine (LNCaP tumor-bearing mice [2]; 48 h after i.v. injection): 0.14 ± 0.07 %ID g^−1
- spleen (LNCaP tumor-bearing mice [2]; 48 h after i.v. injection): 0.97 ± 0.62 %ID g^−1
- stomach (LNCaP tumor-bearing mice [2]; 48 h after i.v. injection): 0.03 ± 0.03 %ID g^−1
- tumor (LNCaP tumor-bearing mice [2]; 48 h after i.v. injection): 8.03 ± 7.31 %ID g^−1
- urine (LNCaP tumor-bearing mice [2]; 48 h after i.v. injection): 97.75 ± 0.34 %ID
- in vivo CLI tumor visualization (LNCaP tumor-bearing mice [3]): excellent tumor visualization
